The target in this assay is T1, DC-SIGN (Homo sapiens, UniProt Q9NNX6).
T1 construct: gene CD209; DC-SIGN-Fc: extracellular domain fused to the Fc portion of human IgG1
T1 sequence (Q9NNX6 59-404 limits assumed): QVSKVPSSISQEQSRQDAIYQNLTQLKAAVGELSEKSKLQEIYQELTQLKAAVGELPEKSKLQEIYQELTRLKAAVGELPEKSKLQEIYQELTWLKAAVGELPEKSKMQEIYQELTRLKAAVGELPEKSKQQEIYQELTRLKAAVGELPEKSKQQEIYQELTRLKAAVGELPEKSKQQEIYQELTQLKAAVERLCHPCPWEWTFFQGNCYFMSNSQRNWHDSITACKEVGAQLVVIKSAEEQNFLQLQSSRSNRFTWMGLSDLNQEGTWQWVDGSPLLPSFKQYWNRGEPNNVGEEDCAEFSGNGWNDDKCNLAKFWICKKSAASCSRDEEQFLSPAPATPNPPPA
Kind of assay: Solid-phase competition ELISA of DC-SIGN-Fc against PAA-fucose and PAA-Le^b; also Le^b bead competition on DC-SIGN expressing cells ([…]). Type of assay: binding. A general note: An ELISA detects its analyte on a solid surface through an enzyme-linked reagent.

These results are taken from PMC9737664, “Human Milk Oligosaccharide 2′-Fucosyllactose Inhibits Ligand Binding to C-Type Lectin DC-SIGN but Not to Langerin” (International Journal of Molecular Sciences, 2022).

As to `C[C@@H]1O[C@@H](O[C@H]2[C@H](O[C@H]3[C@H](O)[C@@H](O)C(O)O[C@@H]3CO)O[C@H](CO)[C@H](O)[C@@H]2O)[C@@H](O)[C@H](O)[C@@H]1O` (stereo partly shown) [2′-FL, 2′-Fucosyllactose], the “Solid-phase competition ELISA of DC-SIGN-Fc against PAA-fucose and PAA-Le^b; als” value was ~ 2 mM.
